The test system of one data set is MEK1/2. The data set can be described thus: Western blot of pERKs and ERKs in mice whole brain lysates after oral administration. In kind it is in vivo. The settings on record: wild type mice. The method, then: FIG. 2 provides a representative image of western blot analysis of pERKs and ERKs in mice whole brain lysates. ERKs were included as a loading control.
Cells and tissues were washed twice with ice-cold phosphate-buffered saline (PBS) and extracted by homogenizing with Ripa buffer (10 mM HEPES, 1.5 mM MgCl2, 10 mM KCl, 0.01 M DTT, protease inhibitors, pH 7.9). Lysates were centrifuged at 13,000 rpm for 20 min at 4° C. and the protein content in the supernatant was determined using Bradford assay (Bio-rad, Hercules, Calif.). Protein from each sample was subjected to 8%-15% SDS-PAGE, and the resolved proteins were transferred to nitrocellulose or polyvinylidene fluoride membrane. The membranes were blocked with 5% nonfat milk powder in Tris-buffered saline/Tween 20 (TBST) for 1 h at room temperature, then incubated with anti-phospho-ERK (Cell signaling), anti-ERK (Cell signaling), anti-LAMP1 (Abcam), anti-LC3 (Cell signaling), anti-cathepsin B (Cell signaling), anti-p62 (Cell signaling), anti-p62 (5114, Cell signaling), anti-phospho-mTOR (5536, Cell signaling), anti-mTOR (2983, Cell signaling), anti-phospho-ULK1 (14202, Cell signaling), anti-ULK1 (8054, Cell signaling), anti-TFEB (852501, Biolegend), and anti-GAPDH (Cell signaling) overnight at 4° C. […] The detected signals were quantified using a LAS-4000 system (Fuji Film, Tokyo, Japan).
A general note: Immunoblotting shows a protein as a band on a membrane.

Data set [1] concerns mRNA expression in whole brain. Put plainly: Bulk RNA-Seq of whole brains of wild type mice after oral administration. Format: in vivo. The settings on record: FC ≥1.3, FDR <0.05. The method, then:
To evaluate the transcriptional profiles in the brain, bulk RNA-Seq was performed using whole brains of wild type mice following oral administration of trametinib. Gene ontology terms were enriched at each weekly time point, indicating the relevance of cellular function such as synaptic potential, nervous system development, immune response, and incorrect protein folding in a temporal pattern (FIG. 3A). Decrease in MEK-ERK signaling with trametinib administration during week 1 and week 2 of administration can be indirectly confirmed through the decrease in expression of FGF receptor signaling and GPCR signaling related genes.
In the second week, we observed neuroblast proliferation-related and axon growth-related gene expression, followed by expression of genes for immune reaction and incorrect protein modification reaction in the third and fourth week, respectively. It is important to note that increase in the gene-sets associated with neurogenesis and the induction of lysosomal activity both occurred within the four-week period, as illustrated by the gene expression heatmap (FIGS. 4A-4B). […] Their FCs were between −2.26 and 3.71.
RNA was isolated from the mice whole brain and cDNA libraries for RNA sequencing were prepared using the TruSeq Stranded mRNA Prep Kit (Illumina, San Diego, Calif.) according to the manufacturer's guidelines (l). The libraries were sequenced on the Illumina Nextseq500 platform and the reads were mapped to the reference Mouse mm10 genome using Tophat v2.0.13. The total number of reads mapped to the transcriptomes were 24,532 genes and the genes with 0 count in at least one sample were removed before differential expression analysis. There was a total of 18,727 genes after the removal of genes with 0 count. To define differentially expressed genes (DEG), we set up a stringent statistic cutoff of fold change (FC) of ≥1.3 and a false discovery rate (FDR)<0.05. A total of 500 DEGs was identified between the vehicle-treated group and trametinib-treated group in the first week, 498 DEGs in the second week, 446 genes in the third week and 538 genes in the fourth week. Gene ontology was performed with Gene Ontology program of the gene ontology consortium. Heatmap analysis was performed by R studio using the DEG list related with synapse, neurogenesis and lysosome.

The subject of a further data set is SOD1-G93A ALS model mice. The data set can be described thus: Survival of SOD1-G93A ALS model mice. Format: in vivo. To be noted: 0.1 or 0.2 mg/kg/day oral. The method, then: Therapeutic efficacy of trametinib was examined in the SOD1-G93A transgenic mouse model, the most widely used animal model for ALS research. The SOD1-G93A ALS model mice, TgN [B6SJL-Tg (SOD1-G93A) 1Gur], were purchased from Jackson Laboratory (ME, USA) and bred at 21±2° C., 35-65% RH.
In addition, immunohistochemical analysis was performed with the spinal cords of the mice to evaluate the efficacy of trametinib on the tissue, cellular, and molecular level.
After the onset of symptoms (around 16 weeks after birth), trametinib was orally administered to two groups of ALS model mice every day at the doses of 0.1 mg/kg or 0.2 mg/kg (mpk). As controls, wild type (WT) mice and ALS model mice were treated with vehicle.
Mice with motor performance score at or lower than 3 were euthanized as they were not able to feed themselves. Survival days for each group of mice were counted.

Data set [2] concerns spinal cord neurons of SOD1-G93A ALS model mice. The data set can be described thus: Histological and immunohistochemical analysis of spinal cord of SOD1-G93A ALS model mice. To be noted: vs vehicle-treated ALS mice. In kind it is in vivo. The method, then: After the behavioral tests above were completed, the spinal cords of the euthanized mice were removed, fixed, and processed. The spinal cord tissue was sliced to a thickness of 10 μm with the CM1860 cryomicrotome (Leica Biosystems, Germany). Immunohistochemical analysis was performed using various staining methods to examine the spinal cord tissue, motor neurons, and protein expression in the motor neurons.
Through Nissl staining, the condition and distribution of neurons can be examined. Nissl staining solution contained 0.1% w/v Cresyl Violet (Sigma, C-5042, USA) and 0.1% v/v glacial acetic acid.
In order to examine the condition of the motor neurons, the spinal cord tissues were subjected to NeuN immunofluorescent staining to observe all types of neurons (red in FIG. 11) and SMI-32 staining (SMI-32 antibody binds specifically to motor neurons) to observe motor neurons (green in FIG. 11).
A longitudinal section of the spinal cord tissue was stained with tau antibody to examine the condition of the axonal nerve tract.
A cross-section of the spinal cord was stained with Tuj 1, an axonal marker, to examine the condition of axons in the tested mice.
MAP2 staining was performed to observe the condition of dendrites projecting out of the neurons.
(§1) Mice were perfused with ice-cold phosphate buffered saline (PBS) and followed by 4% paraformaldehyde (PFA). Spinal cords were dissected and analyzed by immunohistochemistry. For cryosections, spinal cords were prepared into sections of 10 μm slices. For immunostaining, the sections were incubated with anti-Map2 (Millipore, Burlington, Mass.), anti-Tuj 1 (Cell signaling, Danvers, Mass.), anti-SMI-32 (Biolegend, San Diego, Calif.), anti-LAMP1 (Abcam, Cambridge, UK), or anti-LC3 (Cell signaling) antibodies. This step was followed by incubation with Alexa Fluor 488-conjugated anti-mouse IgG (Thermo, Waltham, Mass.), Alexa Fluor 488-conjugated anti-rat IgG (Thermo), Alexa Fluor 555-conjugated anti-rabbit IgG secondary antibodies (Thermo). The sections were counterstained with DAPI. The immunofluorescent images were captured using a LSM700 Laser-Scanning confocal microscope (Carl Zeiss, Heildenheim, Germany). For Nissl staining, the sections were incubated with Nissl staining solution (0.1% w/v Cresyl Violet (Sigma, C-5042, USA) and 0.1% v/v glacial acetic acid). The length of the Map2 and Tuj 1 positive dendrites and axons were measured using Icy program. The LC3-LAMP1 co-localization was observed under a confocal microscopy using a LSM700 microscope (Carl Zeiss).

Data set [3] has as its system LAMP1 / LC3 in spinal cord of SOD1-G93A ALS model mice. Put plainly: LC3 and LAMP1 immunofluorescence in spinal cord tissues (autophagosome-lysosome fusion). In kind it is in vivo. To be noted: vs vehicle-treated ALS model mice. Here is the method: as §1
The test system of a further data set is patients with ALS. The data set can be described thus: Phase 1/2a clinical trial in patients with ALS. Format: in vivo, human.
Another data set in a line: in vivo. The settings on record: mouse, po, 0.8 mg/kg.

Procedure for in vivo: Trametinib (Medchemexpress, Monmouth Junction, N.J.) was micronized and suspended in the vehicle containing 5% mannitol, 1.5% hydroxypropyl methylcellulose and 0.2% sodium lauryl sulfate. For pharmacokinetic analysis, 0.05, 0.2 and 0.8 mg/kg of trametinib were orally administered in to 7-week-old normal mice (n=5 per group) as a single administration. Mice were sacrificed at each identical time points.
Source text for patients with ALS: Patients are selected based on the following criteria for a sequential dose-escalation, randomized, active-controlled, phase ½a clinical trial to evaluate the safety, tolerability and efficacy of trametinib in patients with ALS.
Patients diagnosed as definite, probable or probable-laboratory-supported ALS according to El Escorial Criteria. Patients of less than 2 years after the onset of ALS. Patients who meet the criteria of K-ALSFRS-R score (total score of at least 30 and score of at least 2 for each item) and forced vital capacity (% FVC≥70%, or 60%≤% FVC<70% with K-ALSFRS-R score ≥3 for items 10 to 12).
Patients with primary lateral sclerosis, progressive muscular atrophy or lower motor neuron disease. […] Patients who have permanently ceased the administration of riluzole due to lack of tolerability and/or efficacy. […]
As primary outcome measures, safety and tolerability of trametinib is tested based on observation of adverse events. As secondary outcome measures, K-ALSFRS-R (Korean version of Amyotrophic Lateral Sclerosis Functional Rating Scale-Revised) scores are measured in the patients by independent outcome assessors. Additionally, change in forced vital capacity (FVC) from baseline, trough concentrations of trametinib in cerebrospinal fluid (CSF) and trough concentrations of trametinib in plasma are further measured.

Consider `CC(=O)Nc1cccc(-n2c(=O)n(C3CC3)c(=O)c3c(Nc4ccc(I)cc4F)n(C)c(=O)c(C)c32)c1` [Trametinib, acetamide, N-[3-[3-cyclopropyl-5-[(2-fluoro-4-iodophenyl)amino]-3,4,6,7-tetrahydro-6,8-dimethyl-2,4,7-trioxopyrido[4,3-d]pyrimidin-1(2H)-yl]phenyl]], for which, in the data set on MEK1/2, the “pERK expression in the brain” value is “significant decrease in pERK expression”. Besides, the “number of differentially expressed genes (DEGs) vs vehicle-treated group” value (“number of differentially expressed genes” for short) in data set [1] (first week) was determined as 500. Moreover, the “number of differentially expressed genes” value in data set [1] (fourth week) is 538. In data set [1] (second week), the “number of differentially expressed genes” value was determined as 498. Besides, in data set [1] (third week), the “number of differentially expressed genes” value is listed as 446. For the same compound, the “survival compared to the vehicle-treated groups” value in the data set on SOD1-G93A ALS model mice was “prolonged”. Further, in data set [2], the “axon condition (Tuj 1 staining, cross-section)” value was “relatively well protected long axons”; the “axonal tract condition (tau staining, longitudinal section)” value is “reduced number of abnormal axonal spheroids”; the “dendrite condition (MAP2 staining)” value is recorded as “quite well protected”; the “motor neuron shape (SMI-32 and NeuN staining)” value is listed as “elongated neurite shape was relatively well preserved”. Besides, the “number of neurons in spinal cord (Nissl staining)” value in data set [2] was “retained more neurons than the vehicle-treated group”. For the same compound, in data set [3], the “LAMP1 signal (lysosome marker)” value was “LAMP1 signal was restored”; the “fusion of lysosome and autophagosome (LC3-LAMP1 co-localization)” value is “restored as well”. In addition, the “symptoms associated with ALS in treated patients” value with patients with ALS (0.5, 1 or 2 mg trametinib) was “reduction of a behavioral, physiological and/or pathological symptom associated with ALS”. Also, the “level of one or more markers after treatment” value with patients with ALS (some patients) is listed as “change in the level of one or markers”. The compound also registered a Kp in the data set “in vivo” of 0.477.

The record behind these values is patent US20200368239A1, “TREATMENT OF AMYOTROPHIC LATERAL SCLEROSIS USING TRAMETINIB” (priority 2019, published 2020).
